From PMC6225228, “Design, Synthesis and Evaluation of N-pyrazinylbenzamides as Potential Antimycobacterial Agents” (Molecules : A Journal of Synthetic Chemistry and Natural …, 2018)
Values after ≈ are worked out from the molar mass of the structure shown. Where two headings read alike, the source gives them in different places.

What was measured:
[1] = tested on: Enterococcus sp. J 14365/08; test: Antibacterial microdilution broth, EF; format: cell-based; conditions: Enterococcus, read-out: MIC EF
[2] = tested on: Candida tropicalis 156; test: Antifungal microdilution broth, CT; format: cell-based; conditions: read-out: MIC CT
[3] = tested on: Candida glabrata 20/I; test: Antifungal microdilution broth, CG; format: cell-based; conditions: Nakaseomyces glabratus, 20/I, read-out: MIC CG
[4] = tested on: Pseudomonas aeruginosa CCM 1961; test: Antibacterial microdilution broth, PA; format: cell-based; conditions: Pseudomonas aeruginosa, read-out: MIC PA
[5] = tested on: Trichosporon asahii 1188; test: Antifungal microdilution broth, TA; format: cell-based; conditions: read-out: MIC TA
[6] = tested on: Trichophyton interdigitale 445; test: Antifungal microdilution broth, TI; format: cell-based; conditions: read-out: MIC TI
[7] = tested on: M. avium ssp. avium CNCTC My 80/72 (ATCC 15769); test: Antimycobacterial microdilution MABA, M. avium; format: cell-based, Mycobacterium avium; conditions: for MIC: Mycobacterium avium, ATCC15769, pH 6.6, read-out: M. avium ATCC 15769 MIC
[8] = tested on: Staphylococcus aureus CCM 4516/08; test: Antibacterial microdilution broth, SA; format: cell-based; conditions: Staphylococcus aureus
[9] = tested on: Staphylococcus aureus H 5996/08 methicillin resistant; test: microbe, parasite or virus in culture; format: cell-based; conditions: Staphylococcus aureus, MRSA, read-out: MIC MRSA
[10] = tested on: Candida krusei E28; test: Antifungal microdilution broth, CK; format: cell-based; conditions: Pichia kudriavzevii, read-out: MIC CK
[11] = tested on: Mycobacterium smegmatis CCM 4622 (ATCC 607); test: Antimycobacterial microdilution, M. smegmatis; format: cell-based; conditions: Mycolicibacterium smegmatis, read-out: M. smeg. ATCC 607 MIC
[12] = tested on: Lichtheimia corymbifera 272; test: Antifungal microdilution broth, LC; format: cell-based; conditions: read-out: MIC LC
[13] = tested on: Escherichia coli CCM 4517; test: Antibacterial microdilution broth, EC; format: cell-based; conditions: Escherichia coli, read-out: MIC EC
[14] = tested on: M. kansasii CNCTC My 235/80 (ATCC 12478); test: Antimycobacterial microdilution MABA, M. kansasii; format: cell-based, Mycobacterium kansasii; conditions: for MIC: Mycobacterium kansasii, ATCC12478, pH 6.6, read-out: M. kans. ATCC 12478 MIC, Middlebrook 7H9 with OADC, pH 6.6, MABA
[15] = tested on: Mycobacterium tuberculosis H37Rv CNCTC My 331/88 (ATCC 27294); test: Antimycobacterial microdilution MABA, M. tuberculosis; format: cell-based; conditions: for MIC: Mycobacterium tuberculosis, read-out: Mtb H37Rv ATCC 27294 MIC, Middlebrook 7H9 with OADC growth supplement, pH = 6.6, MABA
[16] = tested on: Staphylococcus epidermidis H 6966/08; test: Antibacterial microdilution broth, SE; format: cell-based; conditions: Staphylococcus epidermidis, read-out: MIC SE
[17] = tested on: Aspergillus fumigatus 231; test: Antifungal microdilution broth, AF; format: cell-based; conditions: read-out: MIC AF
[18] = tested on: Candida albicans ATCC 44859; test: Antifungal microdilution broth, CA; format: cell-based; conditions: Candida albicans, read-out: MIC CA
[19] = Trichosporon asahii, 1188, 24 h
[20] = Trichosporon asahii, 1188, 48 h
[21] = Trichophyton interdigitale, 445, 72 h
[22] = Trichophyton interdigitale, 445, 120 h
[23] = Middlebrook 7H9 with OADC, pH 6.6, MABA
[24] = CCM4516, 24 h, read-out: MIC SA, 24 h
[25] = CCM4516, 48 h, read-out: MIC SA, 48 h
[26] = Lichtheimia corymbifera, 272, 24 h
[27] = Lichtheimia corymbifera, 272, 48 h
[28] = Aspergillus fumigatus, 231, 24 h
[29] = Aspergillus fumigatus, 231, 48 h

SMILES | MIC ([1]; SP.J14365/08, 24 h) [µM] | MIC ([1]; SP.J14365/08, 48 h) [µM] | MIC ([2]; Candida tropicalis, 156, 24 h) [µM] | MIC ([2]; Candida tropicalis, 156, 48 h) [µM] | MIC ([3]; 24 h) [µM] | MIC ([3]; 48 h) [µM] | MIC ([4]; CCM1961, 72 h) [µM] | MIC ([4]; CCM1961, 120 h) [µM] | MIC [5, 19] [µM] | MIC [5, 20] [µM] | MIC [6, 21] [µM] | MIC [6, 22] [µM] | MIC [7] [µg/mL] | MIC [8, 24] [µM] | MIC [8, 25] [µM] | MIC ([9]; 24 h) [µM] | MIC ([9]; 48 h) [µM] | MIC ([10]; E28, 24 h) [µM] | MIC ([10]; E28, 48 h) [µM] | MIC [11] [µg/mL] | also measured
O=C(c1ccc(Cl)cc1)N(C(=O)c1ccc(Cl)cc1)c1cnccn1 [Compound 1l-SP] | > 125 | > 125 | > 125 | > 125 | > 125 | > 125 | > 125 | > 125 | > 125 | > 125 | > 125 | > 125 | > 100 | > 125 | > 125 | > 125 | > 125 | > 125 | > 125 | ≥ 500 | M. avium ATCC 15769 MIC [7, 23]: >100 µg/mL; MIC [12, 26]: > 125 µM; MIC [12, 27]: > 125 µM; MIC ([13]; CCM4517, 24 h): > 125 µM; MIC ([13]; CCM4517, 48 h): > 125 µM; M. kans. ATCC 12478 MIC [14, 23]: >100 µg/mL; MIC [14]: > 100 µg/mL; MIC [15]: 50 µg/mL (≈ 134 µM); melting point: 153.1 to 153.8 °C; MIC ([16]; H6966/08, 24 h): > 125 µM; MIC ([16]; H6966/08, 48 h): > 125 µM; MIC [17, 28]: > 125 µM; MIC [17, 29]: > 125 µM; MIC ([18]; ATCC44859, 24 h): > 125 µM; MIC ([18]; ATCC44859, 48 h): > 125 µM
O=C(Nc1cnccn1)c1cccc(O)c1 [Compound 1c] | > 500 | > 500 | > 500 | > 500 | > 500 | > 500 | > 500 | > 500 | > 500 | > 500 | > 500 | > 500 | > 100 | > 500 | > 500 | > 500 | > 500 | > 500 | > 500 | ≥ 500 | MIC [12, 26]: > 500 µM; MIC [12, 27]: > 500 µM; MIC ([13]; CCM4517, 24 h): > 500 µM; MIC ([13]; CCM4517, 48 h): > 500 µM; MIC [14]: > 100 µg/mL; MIC [15]: > 100 µg/mL; melting point: 192.2 to 193.7 °C; MIC ([16]; H6966/08, 24 h): > 500 µM; MIC ([16]; H6966/08, 48 h): > 500 µM; MIC [17, 28]: > 500 µM; MIC [17, 29]: > 500 µM; MIC ([18]; ATCC44859, 24 h): > 500 µM; MIC ([18]; ATCC44859, 48 h): > 500 µM
CC(=O)Oc1cccc(C(=O)Nc2cnccn2)c1 [Compound 1c-Ac] | > 500 | > 500 | > 500 | > 500 | > 500 | > 500 | > 500 | > 500 | > 500 | > 500 | > 500 | > 500 | > 100 | > 500 | > 500 | > 500 | > 500 | > 500 | > 500 | ≥ 500 | MIC [12, 26]: > 500 µM; MIC [12, 27]: > 500 µM; MIC ([13]; CCM4517, 24 h): > 500 µM; MIC ([13]; CCM4517, 48 h): > 500 µM; MIC [14]: > 100 µg/mL; MIC [15]: > 100 µg/mL; melting point: 168.4 to 169.5 °C; MIC ([16]; H6966/08, 24 h): > 500 µM; MIC ([16]; H6966/08, 48 h): > 500 µM; MIC [17, 28]: > 500 µM; MIC [17, 29]: > 500 µM; MIC ([18]; ATCC44859, 24 h): > 500 µM; MIC ([18]; ATCC44859, 48 h): > 500 µM
O=C(Nc1cnc(Cl)cn1)c1ccc(Br)cc1 [Compound 2m] | > 125 | > 125 | > 125 | > 125 | > 125 | > 125 | > 125 | > 125 | > 125 | > 125 | > 125 | > 125 | > 100 | > 125 | > 125 | > 125 | > 125 | > 125 | > 125 | ≥ 500 | MIC [12, 26]: > 125 µM; MIC [12, 27]: > 125 µM; MIC ([13]; CCM4517, 24 h): > 125 µM; MIC ([13]; CCM4517, 48 h): > 125 µM; MIC [14]: > 100 µg/mL; Mtb H37Rv ATCC 27294 MIC ([15]; Middlebrook 7H9 with OADC growth supplement, pH = 6.6, MABA): >100 µg/mL; MIC [15]: > 100 µg/mL; melting point: 229.2 to 230.5 °C; MIC ([16]; H6966/08, 24 h): > 125 µM; MIC ([16]; H6966/08, 48 h): > 125 µM; MIC [17, 28]: > 125 µM; MIC [17, 29]: > 125 µM; MIC ([18]; ATCC44859, 24 h): > 125 µM; MIC ([18]; ATCC44859, 48 h): > 125 µM
COc1ccccc1C(=O)Nc1cnc(Cl)cn1 [Compound 2e] | > 125 | > 125 | > 125 | > 125 | > 125 | > 125 | > 125 | > 125 | > 125 | > 125 | > 125 | > 125 | > 100 | > 125 | > 125 | > 125 | > 125 | > 125 | > 125 | ≥ 500 | MIC ([8]; CCM4516, read-out: MIC against S. aureus, time not stated): > 125 µM; MIC [12, 26]: > 125 µM; MIC [12, 27]: > 125 µM; MIC ([13]; CCM4517, 24 h): > 125 µM; MIC ([13]; CCM4517, 48 h): > 125 µM; MIC [14]: > 100 µg/mL; MIC [15]: > 100 µg/mL; melting point: 141.2 to 142 °C; MIC ([16]; H6966/08, 24 h): > 125 µM; MIC ([16]; H6966/08, 48 h): > 125 µM; MIC [17, 28]: > 125 µM; MIC [17, 29]: > 125 µM; MIC ([18]; ATCC44859, 24 h): > 125 µM; MIC ([18]; ATCC44859, 48 h): > 125 µM
